Experimental findings from US7582681B2, “Synergistic mixtures of 1,2-alkane diols” (Symrise GmbH & Co. KG, priority 2002, dated 2009) are described below.

Converted amounts (≈) assume the structure as drawn.

For the assay, the system named is Propionibacterium acnes ATCC 11829. The assay can be described thus: MIC, agar dilution method. Format: cell-based. To be noted: Cutibacterium acnes, ATCC11829, anaerobic, Wilkins-Chalgren agar, 72 h at 30° C. The method, then:
Petri dishes 9.0 cm in diameter were charged with 13.5 ml freshly prepared Mueller-Hinton agar (Merck, Ref. 1.05437 or Wilkins-Chalgren agar boullion, Oxoid, Ref. CM 643, supplemented with log agar-agar/liter) kept liquid at 50° C., to which the various concentrations of the diluted samples were added in 10% (V/V)=1.5 ml. Mueller-Hinton agar that contained 3% Tween80 (Merck, Ref. 8.22 187) was used for the test germ Malassezia furfur. In each case 5 ml of the samples were diluted in distilled water and made up to 10 ml. The further test concentrations of the particular dilution series, which were prepared in the form of geometric series, were prepared by progressive 1:2 dilution of this batch with distilled water. […] Two agar plates were poured per test concentration and nutrient medium. After solidification and drying (approx. 1 h at 37° C.), the test plates were inoculated in point form with, in each case, 1 μl of the test germ suspensions listed below. To check purity and identity the bacteria that grow aerobically (Brevibacterium epidermidis, Corynebacterium xerosis, Staphylococcus epidermidis) were [lacuna] on Columbia blood agar (BioMérieux, Ref. 43049). […] Minimal, barely visible growth or few small individual colonies were evaluated as inhibition.
(In general: In agar dilution, organisms are placed on agar that contains the substance at set levels.)

Turning to `CCCCC(O)CO` (centres unmarked) [HE3, 1,2-hexanediol], it took 25 mg/mL (≈ 212 mM) to inhibit growth (MIC).

`CCCCCCC(O)CO` (centres unmarked) [OC3, 1,2-octanediol]: inhibition of growth (MIC) required 6.25 mg/mL (≈ 42.7 mM).
